Test results: US9695155B2, “Herbicidal substituted pyrimidinyloxy benzene compounds” (E. I. DU PONT DE NEMOURS AND COMPANY, priority 2013, dated 2017)

Assays:
wild poinsettia = assay: Test E postemergence; type: in vivo, Euphorbia heterophylla
From the text: (§1) Seeds of plant species selected from corn (Zea mays), soybean (Glycine max), velvetleaf (Abutilon theophrasti), lambsquarters (Chenopodium album), wild poinsettia (Euphorbia heterophylla), palmer pigweed (Amaranthus palmeri), waterhemp (common waterhemp, Amaranthus rudis), surinam grass (Brachiaria decumbens), large (Lg) crabgrass (Digitaria sanguinalis), Brazilian crabgrass (Digitaria horizontalis), fall panicum (Panicum dichotomiflorum), giant foxtail (Setaria faberii), green foxtail (Setaria viridis), goosegrass (Eleusine indica), johnsongrass (Sorghum halepense), ragweed (common ragweed, Ambrosia elatior), barnyardgrass (Echinochloa crus-galli), sandbur (southern sandbur, Cenchrus echinatus), arrowleaf sida (Sida rhombifolia), Italian ryegrass (Lolium multiflorum), dayflower (Virginia (VA) dayflower, Commelina virginica), field bindweed (Convolvulus arvensis), morningglory (Ipomoea coccinea), nightshade (eastern black nightshade, Solanum ptycanthum), kochia (Kochia scoparia), yellow nutsedge (Cyperus esculentus), cocklebur (common cocklebur, Xanthium strumarium), smartweed (ladysthumb smartweed, and hairy beggarticks (Bidens pilosa), were planted into a silt loam soil and treated preemergence with test chemicals formulated in a non-phytotoxic solvent mixture which included a surfactant.
(§2) At the same time, plants from these crop and weed species and also horseweed (Canada horseweed, Conyza canadensis), waterhemp_RES1, (ALS & Triazine resistant common waterhemp, Amaranthus rudis), and waterhemp_RES2, (ALS & HPPD resistant common waterhemp, Amaranthus rudis) were planted in pots containing Redi-Earth® planting medium (Scotts Company, 14111 Scottslawn Road, Marysville, Ohio 43041) comprising spaghnum peat moss, vermiculite, wetting agent and starter nutrients were treated with postemergence applications of test chemicals formulated in the same manner. Plants ranged in height from 2 to 18 cm for postemergence treatments (1- to 4-leaf stage). Treated plants and controls were maintained in a greenhouse for 14 to 21 days, after which time all species were compared to controls and visually evaluated. Plant response ratings, summarized in Table E, are based on a scale of 0 to 100 where 0 is no effect and 100 is complete control. A dash (-) response means no test result.

barnyardgrass = assay: Test E postemergence; type: in vivo, Echinochloa crus-galli
From the text: as §1, §2

sandbur = assay: Test E postemergence; type: in vivo, Cenchrus echinatus
From the text: as §1, §2

bromegrass, downy = assay: Test D preemergence; type: in vivo, Bromus tectorum
Outline: (§3)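 Visual ratings from 0 (no effect) to 100 (complete control) relative to untreated plants were taken 7–21 days after treatment. Chemicals in a surfactant-containing solvent mixture were applied preemergence to seeds in silt loam, or postemergence to plants 2–18 cm tall (1–4 leaves) grown in a peat-based potting medium.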

field poppy = assay: Test D preemergence; type: in vivo, Papaver rhoeas
Outline: as §3

Italian ryegrass = assay: Test D preemergence; type: in vivo, Lolium multiflorum
Outline: as §3

lambsquarters = assay: Test D preemergence; type: in vivo, Chenopodium album
Outline: as §3

pigweed = assay: Test D preemergence; type: in vivo, Amaranthus retroflexus
Outline: as §3

chamomile = assay: Test D preemergence; type: in vivo, Matricaria inodora
Outline: as §3

spring barley = assay: Test D preemergence; type: in vivo, Hordeum vulgare
Outline: as §3

windgrass = assay: Test D preemergence; type: in vivo, Apera spica-venti
Outline: as §3

blackgrass = assay: Test D postemergence; type: in vivo, Alopecurus myosuroides; conditions: Postemergence, scale 0 to 100 (0 no effect, 100 complete control)
Outline: as §3

wild oat = assay: Test D postemergence; type: in vivo, Avena fatua
Outline: as §3

[1] = Postemergence, 31 g ai/ha, scale 0 to 100
[2] = Postemergence, 62 g ai/ha, scale 0 to 100
[3] = Postemergence, 125 g ai/ha, scale 0 to 100
[4] = Postemergence, 250 g ai/ha, scale 0 to 100
[5] = postemergence, 16 g ai/ha, scale 0 to 100, 0 no effect, 100 complete control
[6] = postemergence, 8 g ai/ha, scale 0 to 100, 0 no effect, 100 complete control
[7] = 31 g ai/ha, scale 0 (no effect) to 100 (complete control)

Fc1cnc(Oc2ccccc2-n2cc(Br)cn2)nc1 [Compound 10, 2-[2-(4-bromo-1H-pyrazol-1-yl)phenoxy]-5-fluoropyrimidine]
pest or weed control at 31 g/ha (wild poinsettia; Euphorbia heterophylla, post-emergence, Postemergence, 31 g ai/ha, scale 0 to 100, read-out: Plant response rating, Poinsettia, Wild): 20%
pest or weed control at 62 g/ha (wild poinsettia; Euphorbia heterophylla, post-emergence, Postemergence, 62 g ai/ha, scale 0 to 100, read-out: Plant response rating, Poinsettia, Wild): 30%
pest or weed control at 125 g/ha (wild poinsettia; Euphorbia heterophylla, post-emergence, Postemergence, 125 g ai/ha, scale 0 to 100, read-out: Plant response rating, Poinsettia, Wild): 30%
pest or weed control at 250 g/ha (wild poinsettia; Euphorbia heterophylla, post-emergence, Postemergence, 250 g ai/ha, scale 0 to 100, read-out: Plant response rating, Poinsettia, Wild): 60%
pest or weed control at 16 g/ha (wild poinsettia; Euphorbia heterophylla, post-emergence, postemergence, 16 g ai/ha, scale 0 to 100, 0 no effect, 100 complete control, read-out: Plant response rating, Poinsettia, Wild): 5%
pest or weed control at 31 g/ha (barnyardgrass; Echinochloa crus-galli, post-emergence, Postemergence, 31 g ai/ha, scale 0 to 100, read-out: Plant response rating, Barnyardgrass): 0%
pest or weed control at 62 g/ha (barnyardgrass; Echinochloa crus-galli, post-emergence, Postemergence, 62 g ai/ha, scale 0 to 100, read-out: Plant response rating, Barnyardgrass): 0%
pest or weed control at 125 g/ha (barnyardgrass; Echinochloa crus-galli, post-emergence, Postemergence, 125 g ai/ha, scale 0 to 100, read-out: Plant response rating, Barnyardgrass): 0%
pest or weed control at 250 g/ha (barnyardgrass; Echinochloa crus-galli, post-emergence, Postemergence, 250 g ai/ha, scale 0 to 100, read-out: Plant response rating, Barnyardgrass): 0%
pest or weed control at 16 g/ha (barnyardgrass; Echinochloa crus-galli, post-emergence, postemergence, 16 g ai/ha, scale 0 to 100, 0 no effect, 100 complete control, read-out: Plant response rating, Barnyardgrass): 0%
pest or weed control at 31 g/ha (sandbur; Cenchrus echinatus, post-emergence, Postemergence, 31 g ai/ha, scale 0 to 100, read-out: Plant response rating, Sandbur): 0%
pest or weed control at 62 g/ha (sandbur; Cenchrus echinatus, post-emergence, Postemergence, 62 g ai/ha, scale 0 to 100, read-out: Plant response rating, Sandbur): 0%
pest or weed control at 125 g/ha (sandbur; Cenchrus echinatus, post-emergence, Postemergence, 125 g ai/ha, scale 0 to 100, read-out: Plant response rating, Sandbur): 0%
pest or weed control at 250 g/ha (sandbur; Cenchrus echinatus, post-emergence, Postemergence, 250 g ai/ha, scale 0 to 100, read-out: Plant response rating, Sandbur): 0%
pest or weed control at 16 g/ha (sandbur; Cenchrus echinatus, post-emergence, postemergence, 16 g ai/ha, scale 0 to 100, 0 no effect, 100 complete control, read-out: Plant response rating, Sandbur): 0%

FC(F)(F)c1cnn(-c2ccccc2Oc2ncc(Cl)cn2)c1 [Compound 16]
Plant response rating, Poinsettia, Wild (wild poinsettia; [1]): 60
Plant response rating, Poinsettia, Wild (wild poinsettia; [2]): 60
Plant response rating, Poinsettia, Wild (wild poinsettia; [3]): 70
Plant response rating, Poinsettia, Wild (wild poinsettia; [4]): 80
Plant response rating, Poinsettia, Wild (wild poinsettia; [5]): 50
Plant response rating, Barnyardgrass (barnyardgrass; [1]): 0
Plant response rating, Barnyardgrass (barnyardgrass; [2]): 0
Plant response rating, Barnyardgrass (barnyardgrass; [3]): 10
Plant response rating, Barnyardgrass (barnyardgrass; [4]): 15
Plant response rating, Barnyardgrass (barnyardgrass; [5]): 0
Plant response rating, Sandbur (sandbur; [1]): 0
Plant response rating, Sandbur (sandbur; [2]): 0
Plant response rating, Sandbur (sandbur; [3]): 0
Plant response rating, Sandbur (sandbur; [4]): 0
Plant response rating, Sandbur (sandbur; [5]): 0

Clc1cnc(Oc2cccc(Br)c2-n2cc(Br)cn2)nc1 [Compound 65]
Plant response rating, Poinsettia, Wild (wild poinsettia; [1]): 20
Plant response rating, Poinsettia, Wild (wild poinsettia; [2]): 20
Plant response rating, Poinsettia, Wild (wild poinsettia; [3]): 40
Plant response rating, Poinsettia, Wild (wild poinsettia; [6]): 15
Plant response rating, Poinsettia, Wild (wild poinsettia; [5]): 20
Plant response rating, Barnyardgrass (barnyardgrass; [1]): 0
Plant response rating, Barnyardgrass (barnyardgrass; [2]): 0
Plant response rating, Barnyardgrass (barnyardgrass; [3]): 0
Plant response rating, Barnyardgrass (barnyardgrass; [6]): 0
Plant response rating, Barnyardgrass (barnyardgrass; [5]): 0
Plant response rating, Sandbur (sandbur; [1]): 0
Plant response rating, Sandbur (sandbur; [2]): 0
Plant response rating, Sandbur (sandbur; [3]): 0
Plant response rating, Sandbur (sandbur; [6]): 0
Plant response rating, Sandbur (sandbur; [5]): 0

N#Cc1cccc(Oc2ncc(Cl)cn2)c1-n1cc(-n2ccc(C(F)(F)F)n2)cn1 [Compound 284]
Plant response rating, Bromegrass, Downy (bromegrass, downy; [7]): 0
Plant response rating, Bromegrass, Downy (bromegrass, downy; 62 g ai/ha, scale 0-100): 0
Plant response rating, Bromegrass, Downy (bromegrass, downy; 125 g ai/ha, scale 0-100): 0
Plant response rating, Bromegrass, Downy (bromegrass, downy; 250 g ai/ha, scale 0-100): 10
Plant response rating, Field Poppy (field poppy; [7]): 100
Plant response rating, Field Poppy (field poppy; 62 g ai/ha, scale 0-100): 100
Plant response rating, Field Poppy (field poppy; 125 g ai/ha, scale 0-100): 100
Plant response rating, Field Poppy (field poppy; 250 g ai/ha, scale 0-100): 100
Plant response rating, Ryegrass, Italian (Italian ryegrass; [7]): 0
Plant response rating, Ryegrass, Italian (Italian ryegrass; 125 g ai/ha, scale 0-100): 0
Plant response rating, Ryegrass, Italian (Italian ryegrass; 250 g ai/ha, scale 0-100): 30
Plant response rating, Lambsquarters (lambsquarters; [7]): 30
Plant response rating, Lambsquarters (lambsquarters; 62 g ai/ha, scale 0-100): 100
Plant response rating, Lambsquarters (lambsquarters; 125 g ai/ha, scale 0-100): 100
Plant response rating, Lambsquarters (lambsquarters; 250 g ai/ha, scale 0-100): 100
Plant response rating, Pigweed (pigweed; [7]): 75
Plant response rating, Pigweed (pigweed; 125 g ai/ha, scale 0-100): 100
Plant response rating, Pigweed (pigweed; 250 g ai/ha, scale 0-100): 100
Plant response rating, Chamomile (chamomile; [7]): 100
Plant response rating, Chamomile (chamomile; 62 g ai/ha, scale 0-100): 100
Plant response rating, Chamomile (chamomile; 125 g ai/ha, scale 0-100): 100
Plant response rating, Chamomile (chamomile; 250 g ai/ha, scale 0-100): 100
Plant response rating, Barley, Spring (spring barley; [7]): 10
Plant response rating, Barley, Spring (spring barley; 62 g ai/ha, scale 0-100): 15
Plant response rating, Barley, Spring (spring barley; 125 g ai/ha, scale 0-100): 25
Plant response rating, Barley, Spring (spring barley; 250 g ai/ha, scale 0-100): 35
Plant response rating, Windgrass (windgrass; [7]): 20
Plant response rating, Windgrass (windgrass; 125 g ai/ha, scale 0-100): 45
Plant response rating, Windgrass (windgrass; 250 g ai/ha, scale 0-100): 55
Plant response rating, Blackgrass (blackgrass; 62 g ai/ha): 25
Plant response rating, Blackgrass (blackgrass; 31 g ai/ha): 20
Plant response rating, Blackgrass (blackgrass; 125 g ai/ha): 30
Plant response rating, Blackgrass (blackgrass; 250 g ai/ha): 35
Plant response rating, Oat, Wild (wild oat; 31 g ai/ha, scale 0-100): 20
Plant response rating, Oat, Wild (wild oat; 62 g ai/ha, scale 0 to 100 (0 no effect, 100 complete control)): 25
Plant response rating, Oat, Wild (wild oat; 125 g ai/ha, scale 0 to 100 (0 no effect, 100 complete control)): 25
Plant response rating, Oat, Wild (wild oat; 250 g ai/ha, scale 0 to 100 (0 no effect, 100 complete control)): 35
